Laboratory results as given in article PMC7767053, “Functional Analysis of Odorant-Binding Proteins 12 and 17 from Wheat Blossom Midge Sitodiplosis mosellana Géhin (Diptera: Cecidomyiidae)” (Insects, 2020).
pIC50, pKi: −log10 of the molar value. “Also recorded” adds a separate entry of the source.

How the values were obtained:
SmosOBP12 = SmosOBP12 (Sitodiplosis mosellana, UniProt A0A346RTY7); test: Fluorescence competitive binding assay with 1-NPN probe, recombinant SmosOBP12
Experimental: (§1) To determine binding affinities of SmosOBP12 and SmosOBP17 to host plant volatile compounds, fluorescence competitive binding assays were conducted using 1-N-phenyl-naphthylamine (1-NPN) as the fluorescent probe. Twenty-eight volatile compounds from winter wheat (Table 2) were selected based on our previous research. Both the probe and candidate ligands were dissolved in chromatographic-grade methanol to obtain 1 mM stock solutions, whereas recombinant SmosOBPs were diluted in 20 mM Tris-HCl (pH 7.4) to 2 μM. Fluorescence intensity was detected on an F-4600 fluorescence spectrophotometer (Hitachi, Tokyo, Japan) with a 1 cm light path quartz cuvette. Slits of both excitation and emissions were 10 nm in width. The probe was excited at 337 nm, and emission spectra were recorded between 370 and 550 nm.
(§2) Affinities of SmosOBPs to tested volatile ligands were measured by competition assays: to the 1 mL solution containing 2 μM recombinant protein and 2 μM 1-NPN, 1 mM solution of each putative volatile ligand (in a 2 µL aliquot) was added to final concentrations of 2–14 μM for SmosOBP12 and 2–40 μM for SmosOBP17, respectively. Maximal fluorescence intensities were plotted against ligand concentrations. Data were obtained from three independent measurements.
(§3) The Kd value was calculated using GraphPad Prism 5 (GraphPad Software Inc., La Jolla, CA, USA) via nonlinear regression for a unique site of binding. The inhibition constant (Ki) of each ligand competitor was calculated from the corresponding IC50 value (the concentration of competitor displacing 50% of initial fluorescence intensity) according to the equation: Ki = [IC50]/(1 + [1-NPN]/K1-NPN), where [1-NPN] is the free concentration of 1-NPN, and K1-NPN is the dissociation constant of the SmosOBPs/1-NPN complex.

SmosOBP16 = test system: SmosOBP16; set-up: method as in PMID 31017726; settings: cited from earlier work
SmosOBP21 = test system: SmosOBP21; set-up: method as in PMID 31017726; settings: cited from earlier work
SmosOBP11 = test system: SmosOBP11; set-up: method as in PMID 31017726; settings: cited from earlier work
SmosOBP17 = SmosOBP17 (Sitodiplosis mosellana, UniProt A0A346RTY9); test: Fluorescence competitive binding assay with 1-NPN probe, recombinant SmosOBP17
Sequence of SmosOBP17 (A0A346RTY9 entry or part of it): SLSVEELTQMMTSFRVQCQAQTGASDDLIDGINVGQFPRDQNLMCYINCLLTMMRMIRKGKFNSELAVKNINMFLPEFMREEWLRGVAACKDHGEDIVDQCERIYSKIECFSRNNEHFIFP
Experimental: as §1, §2, §3

S. mosellana females = test: Y-tube olfactometer bioassay; format: in vivo, Sitodiplosis mosellana; settings: 10 μL of 20 μg/μL in paraffin oil vs paraffin oil control; 60 females
Experimental: Behavioral responses of S. mosellana females to the 28 volatile ligands were measured in a glass Y-tube olfactometer. The base and two arms of the Y-tube are 15 cm in length and 25 mm in internal diameter. The angle between arms is 60°. A 10 μL aliquot of the test chemical in paraffin oil at a concentration of 20 μg/μL [45] was applied to a filter paper strip (20 × 20 mm), which was allowed to evaporate for 20 s and then placed into one of the two odor bottles. The other odor bottle contained a filter paper strip treated with 10 μL of paraffin oil as the control. Moist, activated-charcoal filtered air entered both odor bottles connected by Teflon tubing to their respective arms of the Y-tube. The airflow rate through the olfactometer was 100 mL/min, which was measured by a float rotor meter. A newly emerged female S. mosellana adult was introduced into the end of the base of the Y-tube, which was then immediately covered with a dark paper box. An office lamp (20 W) illuminated the joint of two arms to facilitate observation. The choice was made if the S. mosellana female walked or flew 5 cm past the Y junction within 5 min and remained there for at least 15 s. Otherwise, it would be recorded as no-choice. Odor source was renewed for every five individuals. After testing for 10 individuals, the Y-tube was thoroughly cleaned with 95% ethanol and dried, and the treatment and control arms were switched to avoid the directional bias. After one odor source was tested, the Y-tube, odor bottles, and Teflon tubing were cleaned and dried before reuse. All experiments were conducted in a laboratory with a temperature of 25 ± 1 °C from 5:00 to 9:00 p.m. Sixty female adults were tested in each treatment group, and each individual was used only once. The choice response of insects in each treatment group was analyzed by the chi-square test using SPSS 20.0 software (Chicago, IL, USA). Non-selecting insects were recorded but not included in the statistical analysis.

[1] = fluorescence competitive binding

Sequence of SmosOBP12 (A0A346RTY7 entry or part of it): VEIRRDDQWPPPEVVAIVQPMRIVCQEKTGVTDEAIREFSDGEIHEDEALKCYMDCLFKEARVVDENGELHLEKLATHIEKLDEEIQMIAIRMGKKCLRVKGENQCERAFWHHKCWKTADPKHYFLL

pKi (SmosOBP12; calculated from IC50, Ki = [IC50]/(1 + [1-NPN]/K1-NPN), read-out: SmosOBP12 Ki): < 4.95
pIC50 (SmosOBP12; displacement of 1-NPN, 2 μM protein, 2 μM 1-NPN, ligand 2–14 μM, three independent measurements, read-out: SmosOBP12 IC50): < 4.85
pKi (SmosOBP17; calculated from IC50, Ki = [IC50]/(1 + [1-NPN]/K1-NPN)): < 4.52
pIC50 (SmosOBP17; displacement of 1-NPN, 2 μM protein, 2 μM 1-NPN, ligand 2–40 μM, three independent measurements, read-out: SmosOBP17 IC50): < 4.40
SMILES: C=C/C(C)=C/C/C=C(\C)CCC=C(C)C [α-Farnesene]
binding to SmosOBP12 (in words) (SmosOBP12; [1]): did not show any affinity; also recorded: no affinity
binding to SmosOBP16 (in words) (SmosOBP16): no affinity
binding to SmosOBP21 (in words) (SmosOBP21): no affinity
binding to SmosOBP11 (in words) (SmosOBP11): no affinity
binding to SmosOBP17 (in words) (SmosOBP17; [1]): did not show any affinity; also recorded: no affinity
behavioral response of S. mosellana female adults (S. mosellana females): intensive response; also recorded: significant repulsion; also recorded: repelled
